Assays:
u-PAR mRNA [1] = assay: Northern blot of u-PAR mRNA in A549 cells; type: cell-based, human; details: 48 hours, PMA 150 nM, mEGF 20 ng/ml, TGF-β1 7.5 ng/ml, dexamethasone 10^−6 M
Procedure: (§1) The cells were seeded at 0.5×10^6/ml in DMEM and grown to confluence, washed in PBS^+ and kept under serum-free conditions for 48 hours followed by no additions (1, 6), by addition of Dex (10^−6M) (2, 7) PMA (150 nM) (3, 8) mEGF (20 ng/ml) (4, 9) and TGF-β1, (7.5 ng/ml) (5, 10) for 48 hours. After incubation, both the adherent and the non-adherent cells were collected, pooled, and total RNA was isolated as described in Materials and Methods. For the Northern blot analyses, 30 μg of total RNA were electrophoresed in 1.5% agarose gels under denaturing conditions and blotted onto a nitrocellulose filter. The filters were hybridized to a random primed labeled u-PAR cDNA probe. The positions of the ribosomal RNA in the Northern are indicated to the left.
(§2) The human histiocytic lymphoma cell line U937 (American Type Culture Collection (ATCC), CRL 1593) was obtained from Dr. A. Fattorssi (Research Lab. of Aeronautica Militare, Rome, Italy) and cultured in RPMI 1640 medium with 10% heat inactivated fetal calf serum and 2 mM L-glutamine at a density of 0.5×10^6 cells/ml at the onset of the experiment. The medium was supplemented with 100 units/ml of penicillin and 25 ug/ml streptomycin. The human rhabdomyosarcoma (RD) and adenocarcinoma (A549) cell lines (ATCC CCL 136 and ATCC CCl 185, respectively) were obtained from Flow laboratories, Irvine, U.K., and kept in Dulbecco's modified Eagle's medium supplemented with 10% fetal calf serum until confluency, as described earlier (Lund et al., 1988). The cell lines were tested for and found free from Mycoplasma infection. PMA and the other compounds were present during different time periods and in varying concentrations, as indicated for each experiment. The adherent cells were released by a rubber policeman, and harvested for RNA analysis as described (Mayer et al., 1988).
(§3) Total cellular RNA was isolated from the cells as described by Chomczynsky and Sacchi (1987). The RNA was analyzed by hybridizing Northern blots as described (Lund et al., 1987), except that random primed labelled plasmid probes were used. […]

u-PAR [2] = assay: u-PAR protein level in U937 cells by cross-linking of detergent phase to 125I-ATF; type: cell-based, human; details: increasing time of treatment, PMA 150 nM, dibuturyl cAMP 1 mM
u-PAR mRNA [3] = assay: Northern blot of u-PAR mRNA in U937 cells; type: cell-based, human; details: 150 nM PMA, time course
Procedure: The cells were seeded at 0.5×10^6/ml in RPMI 1640 medium containing 10% FCS, and incubated with 150 nM PMA for the indicated number of hours. After the incubation both the adherent and the non-adherent cells were collected, pooled, and total RNA was isolated as described in Materials and Methods. For the Northern blot analyses, 30 μg of total RNA were electrophoresed in 1.5% agarose gels under denaturing conditions and blotted onto a nitrocellulose filter. The filters were hybridized to a random primed labelled u-PAR cDNA probe (A), or a β-actin cDNA probe (B). The positions of the ribosomal RNA in the Northern blot are indicated to the left.
The human histiocytic lymphoma cell line U937 (American Type Culture Collection (ATCC), CRL 1593) was obtained from Dr. A. Fattorssi (Research Lab. of Aeronautica Militare, Rome, Italy) and cultured in RPMI 1640 medium with 10% heat inactivated fetal calf serum and 2 mM L-glutamine at a density of 0.5×10^6 cells/ml at the onset of the experiment. The medium was supplemented with 100 units/ml of penicillin and 25 ug/ml streptomycin. […]
as §3

u-PAR mRNA [4] = assay: Northern blot of u-PAR mRNA in RD cells; type: cell-based, human; details: 48 hours, PMA 150 nM, mEGF 20 ng/ml, TGF-β1 7.5 ng/ml, dexamethasone 10^−6 M
Procedure: as §1, §2, §3

U937 cells = assay: Fate of receptor-bound ligands on U937 cells (internalization and degradation); type: cell-based, human
uPAR-bound u-PA = uPAR-bound u-PA (Homo sapiens, UniProt P00749); type: cell-based; details: peptide 0.5 mg/ml 30 minutes preincubation; PAI-1 0.9 or 4.5 nM
Procedure: U937 cells were grown in suspension in RPMI 1640 medium supplemented with 5% heat-inactivated fetal calf serum. PMA-stimulation of U937 cells was performed at a cell density of […] cells/ml with 150 nM PMA for 4 days. The adherent cell population was harvested with a rubber scraper and resuspended in PBS. […] The effect of PAI's on the activity of cell-bound u-PA was determined by the addition of varying concentrations of PAI-1 (0.18-18.4 nM) or PAI-2 (1.13-56.7 nM) to the incubations at the same time as the addition of plasminogen. Curves were then constructed of plasmin concentration against time. […] [pln]∞ was calculated from the relationship: [[…]]0) equation.2 where Δ[pln]0 is the initial rate of plasmin generation which was determined in control incubations in the absence of inhibitors. […] Association rate constants (second-order rate constants) were calculated from the slope of the line of double reciprocal plots of kapp against inhibitor concentration.

u-PAR [5] = biological target: T1, u-PAR (Homo sapiens, UniProt Q03405); assay: Release of 125I-labelled DFP-u-PA from PMA-stimulated U937 cells by phospholipases; type: cell-based; details: phospholipases >5 μg/ml, compared to blind sample
u-PAR [6] = biological target: T1, u-PAR; assay: Chemical cross-linking of 125I-ATF to purified u-PAR; type: binding; details: unlabelled reagent 100 nM, u-PAR approx. 1 nM, 125I-ATF approx. 1 nM
Procedure: B) Affinity column eluate was diluted to yield an approximate concentration of u-PAR of 1 nM during the assay. The samples were preincubated alone (lane 2) or in the presence of the following unlabelled reagents at a concentration of 100 nM: bovine serum albumin (lane 3), t-PA (lane 4), plasminogen (lane 5), murine epidermal growth factor (lane 6), ATF (lane 7), active 54 kD u-PA (lane 8), DFP-inactivated 54 kD u-PA (lane 9). After preincubation for 15 min at room temperature, ^125I-labelled ATF (approximately 1 nM) was added, followed by incubation for 1 hour at 4° C. After incubation, chemical cross-linking was performed with DSS, after which the samples were analyzed by SDS-PACE on a 6-16% gradient gel under non-reducing conditions and autoradiography. […] Electrophoretic mobilities of molecular weight standard proteins are inducated (kD).
Cross-linking of u-PAR in complex mixtures or purified fractions to ^125I-labelled ATF was performed as described for solubilized receptor (Nielsen et al., 1988), except that 2 mM disuccinimidylsuberate (DSS) was used for cross-linking. Cross-linking of purified u-PAR to DFP-treated u-PA for analysis by SDS-PAGE and silver-staining was performed in the same manner, except that non-labelled DFP-treated u-PA was used as the ligand.

cultured cells = details: plasmin, some cell types (Burtin and Fondaneche, 1988); cited from earlier work
HT-1080 cells = assay: Plasmin release from plasmin-loaded HT-1080 cells; type: cell-based, human
Procedure: FIG. 24. Plasmin release from HT-1080 cells into serum-free and serum-containing media. Confluent layers of HT-1080 cells were first loaded with plasmin by incubation for 1 hour at 37° C. in serum-free MEM medium (0.5 ml) containing human plasmin (0-5 μg/ml). After rinsing the cell layers three times, they were incubated for 2 hours at 37° C. with either serum-free medium (∘ - - - ∘), medium containing 10% heat-inactivated and plasminogen-depleted fetal calf serum (● - - - ●), or the latter with tranexamic acid (100 μM) (▪ - - - ▪). Plasmin was then assayed in the cell-bound fraction (A) and the media (B). At the time of transfer to new media, there was approximately 28 ng of plasmin bound to the cells from the pretreatment with 2.5 μg of plasmin/well.
In the Examples concerning plasmin binding to cells from medium, human plasmin (approximately 18 CU/mg; Kabi Diagnostica, Stockholm, Sweden) was added to the cultures at final concentrations of 0-5 μg/ml. The cells were incubated for 3 hours at 37° C. before assay of cell-bound and supernatant plasmin (see below). For plasmin release experiments, cells were loaded for 1 hour at 37° C. with 0-5 μg/ml plasmin in serum-free medium, then rinsed three times with MEM.
Plasmin bound to the cell layer was recovered and assayed as follows. After harvest of culture medium, the cells were rinsed three times with PBS (plasmin assays of further rinses were negative); then the bound plasmin was specifically eluted (Miles, L. A., and E. F. Plow, “Binding and activation of plasminogen on the platelet surface”, J. Biol. Chem. 260: 4303-4311, 1985) with a solution of 1 mM tranexamic acid in the same rinsing solution (150 μl/well). Plasmin activity was assayed in eluate samples (50 μl) as above with an incubation time of 3 hours at 37° C. Tranexamic acid at 1 mM had no effect on the thioesterase activity of plasmin in these assays.

Q: Which results are given for CCCCCCCCCCCCCC(=O)O[C@@H]1[C@@H](C)[C@@]2(O)[C@@H](C=C(CO)C[C@]3(O)C(=O)C(C)=C[C@@H]23)[C@@H]2C(C)(C)[C@]12OC(C)=O [PMA, Phorbol 12-myristate 13-acetate]?
A: u-PAR mRNA level (u-PAR mRNA [1]): increased; u-PAR protein level (signal of 125I-ATF cross-linked to u-PAR) (u-PAR [2]): increase in the strength of signal; u-PAR mRNA level (u-PAR mRNA [3]): maximal effect after 24 hours; u-PAR mRNA level (u-PAR mRNA [4]): increased

Q: For CCN(CC)CCCC(C)Nc1ccnc2cc(Cl)ccc12 (stereo not shown) [chloroquine], which “Degradation of u-PA:PAI-1 ligand” value (U937 cells) is on record?
A: The value was 20%.

Q: Which “Rates of inhibition of cell-bound u-PA by PAI-1 in the presence or absence of the peptide” value (uPAR-bound u-PA) does the source give for “Gly-Arg-Gly-Asp-Ser (GRGDS; printed: Gly-Arg-Gly-Asp-Ser)” here?
A: Its value is “the same”.

Q: With “TGF-β1: porcine transforming growth factor β-type 1” as the molecule, how does the “u-PAR mRNA level” value (u-PAR mRNA [1]) read?
A: The value was “increased”.

Q: And the “u-PAR mRNA level” value (u-PAR mRNA [4])?
A: Its value is “increased”.

Q: With Trypsin as the molecule, how does the “Liberation of 125I-labelled DFP-u-PA from the cell surface” value (u-PAR [5]) read?
A: The value was “efficiently released all cell surface associated radioactivity”.

Q: For “bovine serum albumin: unrelated control protein”, which “Competition for binding and cross-linking of 125I-labelled ATF to purified u-PAR” value (shortened to “Competition”) (u-PAR [6]) is on record?
A: The value was “no competition”.

Q: Which “u-PAR mRNA level” value (u-PAR mRNA [1]) does the source give for “epidermal growth factor: murine epidermal growth factor” here?
A: The value was “increased”.

Q: And the “Competition” value (u-PAR [6])?
A: The value was “no competition”.

Q: And the “u-PAR mRNA level” value (u-PAR mRNA [4])?
A: The value was “increased”.

Q: With t-PA: tissue-type plasminogen activator as the molecule, how does the “Competition” value (u-PAR [6]) read?
A: Its value is “no competition”.

B1: plasmin: human plasmin (Kabi Diagnostica) (protein, UniProt P00747 20-580; P00747 581-810, looked up)
Plasmin heavy chain A: EPLDDYVNTQGASLFSVTKKQLGAGSIEECAAKCEEDEEFTCRAFQYHSKEQQCVIMAENRKSSIIIRMRDVVLFEKKVYLSECKTGNGKNYRGTMSKTKNGITCQKWSSTSPHRPRFSPATHPSEGLEENYCRNPDNDPQGPWCYTTDPEKRYDYCDILECEEECMHCSGENYDGKISKTMSGLECQAWDSQSPHAHGYIPSKFPNKNLKKNYCRNPDRELRPWCFTTDPNKRWELCDIPRCTTPPPSSGPTYQCLKGTGENYRGNVAVTVSGHTCQHWSAQTPHTHNRTPENFPCKNLDENYCRNPDGKRAPWCHTTNSQVRWEYCKIPSCDSSPVSTEQLAPTAPPELTPVVQDCYHGDGQSYRGTSSTTTTGKKCQSWSSMTPHRHQKTPENYPNAGLTMNYCRNPDADKGPWCFTTDPSVRWEYCNLKKCSGTEASVVAPPPVVLLPDVETPSEEDCMFGNGKGYRGKRATTVTGTPCQDWAAQEPHRHSIFTPETNPRAGLEKNYCRNPDGDVGGPWCYTTNPRKLYDYCDVPQCAAPSFDCGKPQVEPKKCPGR
Plasmin light chain B: VVGGCVAHPHSWPWQVSLRTRFGMHFCGGTLISPEWVLTAAHCLEKSPRPSSYKVILGAHQEVNLEPHVQEIEVSRLFLEPTRKDIALLKLSSPAVITDKVIPACLPSPNYVVADRTECFITGWGETQGTFGAGLLKEAQLPVIENKVCNRYEFLNGRVQSTELCAGHLAGGTDSCQGDSGGPLVCFEKDKYILQGVTSWGLGCARPNKPGVYVRVSRFVTWIEGVMRNN
modifications: plasmin
Q: For B1, which Kd (cultured cells) is on record?
A: The Kd was 50 nM.

Q: What about the “Plasmin activity recovered from the cells” value (HT-1080 cells; 2 hours 37° C., 10% serum-containing medium) of the same molecule?
A: Its value is 40%.

Q: And the “Plasmin activity remaining bound to cells” value (HT-1080 cells; 2 hours 37° C., fresh serum-free medium)?
A: Its value is “approximately 40%”.

Q: And the “Plasmin activity detected in the medium” value (HT-1080 cells; serum-containing medium)?
A: The value was “about 11%”.

Q: And the “Plasmin activity detected in the medium” value (HT-1080 cells; serum-free medium)?
A: The value was 60%.

From patent publication US20030027981A1, “Urokinase-type plasminogen activator receptor” (priority 1989, published 2003)
